{"source": "patent US7312330B2", "about": "“Bicycloheteroarylamine compounds as ion channel ligands and uses thereof” (Renovis, Inc., priority 2003, dated 2007)", "key": {"hVR1": {"biological_target": "hVR1 (Homo sapiens, UniProt Q8NER1)", "sequence (Q8NER1 whole entry)": "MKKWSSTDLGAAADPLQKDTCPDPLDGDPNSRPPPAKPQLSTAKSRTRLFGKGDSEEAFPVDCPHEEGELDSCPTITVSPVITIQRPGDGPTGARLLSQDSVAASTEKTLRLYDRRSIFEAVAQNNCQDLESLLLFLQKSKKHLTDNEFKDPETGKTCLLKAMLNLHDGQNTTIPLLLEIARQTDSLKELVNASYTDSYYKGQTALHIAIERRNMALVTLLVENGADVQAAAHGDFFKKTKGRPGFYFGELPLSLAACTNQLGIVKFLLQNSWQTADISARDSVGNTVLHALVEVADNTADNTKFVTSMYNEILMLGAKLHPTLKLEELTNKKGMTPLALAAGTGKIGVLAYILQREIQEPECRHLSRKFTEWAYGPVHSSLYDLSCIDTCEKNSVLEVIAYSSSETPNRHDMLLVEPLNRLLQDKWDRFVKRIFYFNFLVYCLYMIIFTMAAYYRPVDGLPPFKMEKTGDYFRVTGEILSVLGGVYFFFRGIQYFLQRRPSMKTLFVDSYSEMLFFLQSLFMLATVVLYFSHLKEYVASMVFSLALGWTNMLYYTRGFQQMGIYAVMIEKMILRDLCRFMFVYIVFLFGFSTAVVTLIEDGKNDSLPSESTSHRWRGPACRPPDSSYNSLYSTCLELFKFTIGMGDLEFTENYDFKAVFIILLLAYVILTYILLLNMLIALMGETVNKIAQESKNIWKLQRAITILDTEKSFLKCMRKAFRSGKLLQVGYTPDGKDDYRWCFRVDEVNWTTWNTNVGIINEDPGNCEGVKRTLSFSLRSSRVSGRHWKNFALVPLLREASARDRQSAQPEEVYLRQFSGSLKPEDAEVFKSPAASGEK", "assay": "Calcium imaging assay (Fura2) of VR1 antagonists, proton stimulation", "type": "cell-based", "conditions": "HEK 293 cells expressing hVR1; for % Inhibition @ 1 μM: calcium ion influx induced by proton stimulation (pH 5.7); for IC50: calcium ion influx induced by proton stimulation", "source_text": "VR1 protein is a heat-gated cation channel that exchanges about 10 calcium ions for every sodium ion resulting in neuronal membrane depolarization and elevated intracellular calcium ion levels. Therefore the functional activity of compounds at the VR1 receptor may be determined by measuring changes in intracellular calcium levels in 293 cells expressing capsaicin-insensitive VR1 receptor variants. A dual wavelength ratiometric dye, Fura2, was used as an indicator of relative levels of calcium ions in a 96 well format using a bench top scanning fluorometer with integrated fluidics and temperature control (Flex Station, Molecular Devices).\nA dual wavelength ratiometric dye, Fura2, was used as an indicator of relative levels of [Ca2+] in a 96 well format using a bench top scanning fluorometer with integrated fluidics and temperature control (Flex Station, Molecular Devices).\nHEK 293 cells expressing hVR1 were grown on PDL coated 96-well black-walled plates, in the presence of a DMEM medium containing 5% Penstrep, 5% Glutamax, 200 ug/mL Hygromycin, 5 μg/mL Blasticide and 10% heat inactivated FBS. Prior to assay, the cells were loaded with 5 μg/mL Fura2 in normal saline solution at 37° C. for 40 minutes. Cells were then washed with normal saline to remove the dye.\nThe assay consists of two stages; a pre-treatment phase followed by a treatment phase. In the pretreatment phase, 50 μl of a compound solution was added to the cells. Immediately following, 50 μl of the test compound in the presence of agonist (a saline solution plus 10 mM citric acid bufferd to pH 5.7 with HCl) was added. Fura2 was excited at […] to indicate relative calcium concentration. Changes in wavelength measurements were made throughout the course of the experiment in 4 second intervals over a period of 3 minutes. The fluorescence ratio from the excitations at […] was recorded for analysis. Responses were measured as peak fluorescence ratio after compound-agonist addition minus baseline fluorescence ratio prior to treatment and were calculated for each concentration tested using the SoftMaxPro software. Data was expressed as percentage inhibition calculated as follows: […]\nA dose response curve was then determined, from which the ID50 of each compound was calculated."}, "HsVR1": {"biological_target": "T1, HsVR1 (Homo sapiens, UniProt Q8NER1)", "T1 construct": "expressed in transfected cells; host or cells: Xenopus oocytes injected with HsVR1 RNA", "T1 sequence (Q8NER1 whole entry)": "as above", "assay": "Two-electrode voltage clamp recording of capsaicin induced VR1 current in Xenopus oocytes", "type": "cell-based", "conditions": "250 nM capsaicin induced current; Xenopus oocytes injected with HsVR1 RNA; read-out: EPHYS IC50", "description": "Xenopus ovaries obtained from NASCO were isolated by enzymatic dissociation using collagenase (Worthington, 2 mg/ml). Oocytes were then individually injected with HsVR1 RNA (0.5 μg/μl). Injected oocytes are stored in standard oocyte incubation solution, ND96, containing 96 mM NaCl, 2 mM KCl, 1 mM MgCl2, 0.3 mM CaCl2 and 50 µg/ml Gentamicin at 16° C. Capsaicin induced VR1 current is observed in oocytes 4-5 days after injection. Eight oocytes are placed in the recording chambers. Each oocyte is impaled by 2 glass electrodes having resistances of 0.5 to 1 MOhm when filled with a 3 M KCl solution. Electrode advancement and oocyte impalement are under software control (OpusXpress 1.1, Axon Instruments). VR1 expression in the oocytes is verified using 250 nM capsaicin. Test solution delivery to the oocytes during the experiment is also under software control. The solutions are prepared in 96 well plates and robotically pipetted into the oocyte recording chambers by an 8 channel pipetter. Oocytes are exposed to several 250 μl applications of 250 nM capsaicin until a stable current amplitude is obtained with each application. A set of 96 well plates containing the test solutions is prepared so that the sequence of solution application to the oocyte is as follows: 250 μls of 250 nM capsaicin is followed by a several minute wash with standard oocyte saline. 1 ml of the test compound is then added at a particular test concentration, followed immediately by 250 μl of the compound at the same concentration plus 250 nM capsaicin. The capsaicin induced VR1 current is recorded in the presence and absence of test compound for each concentration. The standard test concentrations range from 0.3 to 2000 nM. Quantitative measurement of VR1 current block was carried out by calculating the area under the curve described by the inward current. The resulting numbers for capsaicin induced currents in the presence of increasing compound concentration are normalized to the maximum current obtained. These points are then plotted on a logarithmic scale and fitted by a Hill function. The IC50 values for each compound tested were then calculated from the resulting Hill fit. All compounds that inhibited capsaicin induced current greater than 50% were considered positives."}}, "data": [{"smiles": "CC(C)(C)c1ccc(Nc2ncnc3c2CCN(c2ncccc2Cl)C3)cc1.Cl", "note": "[Example 3, N-(4-tert-Butylphenyl)-7-(3-chloropyridin-2-yl)-5,6,7,8-tetrahydropyrido[3,4-d]pyrimidin-4-amine hydrochloride]", "values": [{"measurement": "% Inhibition @ 1 μM", "setting": "hVR1", "result": "++++ (compound exhibited 76% or greater inhibition of calcium ion influx induced by proton stimulation)"}, {"measurement": "IC50", "setting": "hVR1", "result": "< 0.1", "unit": "µM"}, {"measurement": "IC50", "setting": "HsVR1", "result": "< 0.1", "unit": "µM"}]}, {"smiles": "COCc1nc2c(c(Nc3ccc(C(C)(C)C)cc3)n1)CCN(c1ncccc1Cl)C2.Cl", "note": "[Example 5, N-(4-tert-Butylphenyl)-7-(3-chloropyridin-2-yl)-5,6,7,8-tetrahydro-2-(methoxymethyl)pyrido[3,4-d]pyrimidin-4-amine hydrochloride]", "values": [{"measurement": "% Inhibition @ 1 μM", "setting": "hVR1", "result": "++++ (compound exhibited 76% or greater inhibition of calcium ion influx induced by proton stimulation)"}, {"measurement": "IC50", "setting": "hVR1", "result": "< 0.1", "unit": "µM"}, {"measurement": "IC50", "setting": "HsVR1", "result": "< 0.1", "unit": "µM"}]}, {"smiles": "CC(C)(C)c1ccc(Nc2ncnc3c2CCN(c2ncccc2S(C)(=O)=O)C3)cc1", "note": "[Example 8, (4-tert-Butyl-phenyl)-[7-(3-methanesulfonyl-pyridin-2-yl)-5,6,7,8-tetrahydro-pyrido[3,4-d]pyrimidin-4-yl]-amine]", "values": [{"measurement": "% Inhibition @ 1 μM", "setting": "hVR1", "result": "++++ (compound exhibited 76% or greater inhibition of calcium ion influx induced by proton stimulation)"}, {"measurement": "IC50", "setting": "hVR1", "result": "0.101 to 0.5", "unit": "µM"}, {"measurement": "IC50", "setting": "HsVR1", "result": "0.101 to 0.5", "unit": "µM"}]}, {"smiles": "CCS(=O)(=O)c1cccnc1N1CCc2c(ncnc2Nc2ccc(C(F)(F)F)cc2)C1", "note": "[Example 10, 7-(3-(Ethylsulfonyl)pyridin-2-yl)-N-(4-(trifluoromethyl)phenyl)-5,6,7,8-tetrahydropyrido[3,4-d]pyrimidin-4-amine]", "values": [{"measurement": "% Inhibition @ 1 μM", "setting": "hVR1", "result": "+++ (compound exhibited 51-75% inhibition of calcium ion influx induced by proton stimulation)"}, {"measurement": "IC50", "setting": "hVR1", "result": "0.101 to 0.5", "unit": "µM"}, {"measurement": "IC50", "setting": "HsVR1", "result": "0.101 to 0.5", "unit": "µM"}]}, {"smiles": "FC(F)(F)c1ccc(Nc2ncnc3c2CCN(c2ncccc2C(F)(F)F)C3)cc1", "note": "[Example 12, (4-Trifluoromethyl-phenyl)-[7-(3-trifluoromethyl-pyridin-2-yl)-5,6,7,8-tetrahydro-pyrido[3,4-d]pyrimidin-4-yl]-amine]", "values": [{"measurement": "% Inhibition @ 1 μM", "setting": "hVR1", "result": "++++ (compound exhibited 76% or greater inhibition of calcium ion influx induced by proton stimulation)"}, {"measurement": "IC50", "setting": "hVR1", "result": "0.101 to 0.5", "unit": "µM"}, {"measurement": "IC50", "setting": "HsVR1", "result": "< 0.1", "unit": "µM"}]}, {"smiles": "FC(F)(F)c1ccc(Nc2ncnc3c2CCN(c2ncccc2Cl)C3)cn1", "note": "[Example 20]", "values": [{"measurement": "% Inhibition @ 1 μM", "setting": "hVR1", "result": "++++ (compound exhibited 76% or greater inhibition of calcium ion influx induced by proton stimulation)"}, {"measurement": "IC50", "setting": "hVR1", "result": "0.101 to 0.5", "unit": "µM"}, {"measurement": "IC50", "setting": "HsVR1", "result": "0.101 to 0.5", "unit": "µM"}]}, {"smiles": "O=S(=O)(c1ccc(Nc2ncnc3c2CCN(c2ncccc2Cl)C3)cc1)C(F)(F)F", "note": "[Example 22, 7-(3-Chloropyridin-2-yl)-N-(4-(trifluoromethylsulphonyl)phenyl)-5,6,7,8-tetrahydropyrido[3,4-d]pyrimidin-4-amine]", "values": [{"measurement": "% Inhibition @ 1 μM", "setting": "hVR1", "result": "++++ (compound exhibited 76% or greater inhibition of calcium ion influx induced by proton stimulation)"}, {"measurement": "IC50", "setting": "hVR1", "result": "< 0.1", "unit": "µM"}, {"measurement": "IC50", "setting": "HsVR1", "result": "< 0.1", "unit": "µM"}]}, {"smiles": "CN1CC(C)(C)c2ccc(Nc3ncnc4c3CCN(c3ncccc3Cl)C4)cc21", "note": "[Example 70, 7-(3-Chloropyridin-2-yl)-5,6,7,8-tetrahydro-N-(1,3,3-trimethylindolin-6-yl)pyrido[3,4-d]pyrimidin-4-amine]", "values": [{"measurement": "% Inhibition @ 1 μM", "setting": "hVR1", "result": "++++ (compound exhibited 76% or greater inhibition of calcium ion influx induced by proton stimulation)"}, {"measurement": "IC50", "setting": "hVR1", "result": "< 0.1", "unit": "µM"}]}, {"smiles": "FC(F)(F)c1ccnc(N2CCc3c(ncnc3Nc3ccc4c(c3)OCCO4)C2)c1", "note": "[Example 71, 7-(4-(Trifluoromethyl)pyridin-2-yl)-5,6,7,8-tetrahydro-N-(2,3-dihydrobenzo[b][1,4]dioxin-7-yl)pyrido[3,4-d]pyrimidin-4-amine]", "values": [{"measurement": "% Inhibition @ 1 μM", "setting": "hVR1", "result": "+ (compound exhibited 0-25% inhibition of calcium ion influx induced by proton stimulation)"}, {"measurement": "IC50", "setting": "hVR1", "result": "> 1", "unit": "µM"}]}, {"smiles": "COc1cccc(Nc2ncnc3c2CCN(c2cc(C(F)(F)F)ccn2)C3)c1", "note": "[Example 72, 7-(4-(Trifluoromethyl)pyridin-2-yl)-5,6,7,8-tetrahydro-N-(3-methoxyphenyl)pyrido[3,4-d]pyrimidin-4-amine]", "values": [{"measurement": "% Inhibition @ 1 μM", "setting": "hVR1", "result": "+ (compound exhibited 0-25% inhibition of calcium ion influx induced by proton stimulation)"}, {"measurement": "IC50", "setting": "hVR1", "result": "> 1", "unit": "µM"}]}, {"smiles": "COc1cccc(Nc2ncnc3c2CCN(c2ccc(C(F)(F)F)cn2)C3)c1", "note": "[Example 73, 7-(5-(Trifluoromethyl)pyridin-2-yl)-5,6,7,8-tetrahydro-N-(3-methoxyphenyl)pyrido[3,4-d]pyrimidin-4-amine]", "values": [{"measurement": "% Inhibition @ 1 μM", "setting": "hVR1", "result": "+ (compound exhibited 0-25% inhibition of calcium ion influx induced by proton stimulation)"}, {"measurement": "IC50", "setting": "hVR1", "result": "> 1", "unit": "µM"}]}, {"smiles": "Clc1cccnc1N1CCc2c(ncnc2Nc2ccc3c(c2)OCCO3)C1", "note": "[Example 74, 7-(3-Chloropyridin-2-yl)-5,6,7,8-tetrahydro-N-(2,3-dihydrobenzo[b][1,4]dioxin-6-yl)pyrido[3,4-d]pyrimidin-4-amine]", "values": [{"measurement": "% Inhibition @ 1 μM", "setting": "hVR1", "result": "++ (compound exhibited 26-50% inhibition of calcium ion influx induced by proton stimulation)"}, {"measurement": "IC50", "setting": "hVR1", "result": "> 1", "unit": "µM"}]}, {"smiles": "O=C(O)COc1nc2c(c(Nc3ccc(C(F)(F)F)cc3)n1)CCN(c1ncccc1Cl)C2", "note": "[Example 75, 2-(4-(4-(Trifluoromethyl)phenylamino)-7-(3-chloropyridin-2-yl)-5,6,7,8-tetrahydropyrido[3,4-d]pyrimidin-2-yloxy)acetic acid]", "values": [{"measurement": "% Inhibition @ 1 μM", "setting": "hVR1", "result": "+ (compound exhibited 0-25% inhibition of calcium ion influx induced by proton stimulation)"}, {"measurement": "IC50", "setting": "hVR1", "result": "> 1", "unit": "µM"}]}, {"smiles": "O=S(=O)(c1ccc(Nc2ncnc3c2CCN(c2ncccc2C(F)(F)F)C3)cc1)C(F)(F)F", "note": "[Example 76, 7-(3-(trifluoromethyl)pyridin-2-yl)-5,6,7,8-tetrahydro-N-(4-(trifluoromethylsulfonyl)-phenyl)pyrido[3,4-d]pyrimidin-4-amine]", "values": [{"measurement": "% Inhibition @ 1 μM", "setting": "hVR1", "result": "++++ (compound exhibited 76% or greater inhibition of calcium ion influx induced by proton stimulation)"}, {"measurement": "IC50", "setting": "hVR1", "result": "< 0.1", "unit": "µM"}]}, {"smiles": "FC(F)Oc1ccc(Nc2ncnc3c2CCN(c2ncccc2C(F)(F)F)C3)cc1", "note": "[Example 77, N-(4-(difluoromethoxy)phenyl)-7-(3-(trifluoromethyl)pyridin-2-yl)-5,6,7,8-tetrahydropyrido[3,4-d]pyrimidin-4-amine]", "values": [{"measurement": "% Inhibition @ 1 μM", "setting": "hVR1", "result": "++++ (compound exhibited 76% or greater inhibition of calcium ion influx induced by proton stimulation)"}, {"measurement": "IC50", "setting": "hVR1", "result": "0.101 to 0.5", "unit": "µM"}]}, {"smiles": "FC(F)(F)Oc1ccc(Nc2ncnc3c2CCN(c2ncccc2Cl)C3)cc1", "note": "[Example 78, 7-(3-Chloropyridin-2-yl)-5,6,7,8-tetrahydro-N-(4-(trifluoromethoxy)-phenyl)pyrido[3,4-d]pyrimidin-4-amine]", "values": [{"measurement": "% Inhibition @ 1 μM", "setting": "hVR1", "result": "++++ (compound exhibited 76% or greater inhibition of calcium ion influx induced by proton stimulation)"}, {"measurement": "IC50", "setting": "hVR1", "result": "< 0.1", "unit": "µM"}]}, {"smiles": "FC(F)(F)Oc1ccc(Nc2ncnc3c2CCN(c2ncccc2C(F)(F)F)C3)cc1", "note": "[Example 79, 7-(3-(trifluoromethyl)pyridin-2-yl)-5,6,7,8-tetrahydro-N-(4-(trifluoromethoxy)-phenyl)pyrido[3,4-d]pyrimidin-4-amine]", "values": [{"measurement": "% Inhibition @ 1 μM", "setting": "hVR1", "result": "++++ (compound exhibited 76% or greater inhibition of calcium ion influx induced by proton stimulation)"}, {"measurement": "IC50", "setting": "hVR1", "result": "< 0.1", "unit": "µM"}]}]}
